Source: ChEMBL document CHEMBL5113503, “Synthesis and biological evaluation of 4-(4-aminophenyl)-6-methylisoxazolo[3,4-b] pyridin-3-amine covalent inhibitors as potential agents for the treatment of acute myeloid leukemia” (Bioorg Med Chem, 2022)

Columns and labels:
[1] = biological target: T1, Receptor-type tyrosine-protein kinase FLT3 (Homo sapiens, UniProt P36888); assay: Inhibition of FLT3 (unknown origin) preincubated with compound for 10 mins followed by substrate addition and measured after 1 hrs by ADP-Glo kinase assay
T1 sequence (P36888 whole entry): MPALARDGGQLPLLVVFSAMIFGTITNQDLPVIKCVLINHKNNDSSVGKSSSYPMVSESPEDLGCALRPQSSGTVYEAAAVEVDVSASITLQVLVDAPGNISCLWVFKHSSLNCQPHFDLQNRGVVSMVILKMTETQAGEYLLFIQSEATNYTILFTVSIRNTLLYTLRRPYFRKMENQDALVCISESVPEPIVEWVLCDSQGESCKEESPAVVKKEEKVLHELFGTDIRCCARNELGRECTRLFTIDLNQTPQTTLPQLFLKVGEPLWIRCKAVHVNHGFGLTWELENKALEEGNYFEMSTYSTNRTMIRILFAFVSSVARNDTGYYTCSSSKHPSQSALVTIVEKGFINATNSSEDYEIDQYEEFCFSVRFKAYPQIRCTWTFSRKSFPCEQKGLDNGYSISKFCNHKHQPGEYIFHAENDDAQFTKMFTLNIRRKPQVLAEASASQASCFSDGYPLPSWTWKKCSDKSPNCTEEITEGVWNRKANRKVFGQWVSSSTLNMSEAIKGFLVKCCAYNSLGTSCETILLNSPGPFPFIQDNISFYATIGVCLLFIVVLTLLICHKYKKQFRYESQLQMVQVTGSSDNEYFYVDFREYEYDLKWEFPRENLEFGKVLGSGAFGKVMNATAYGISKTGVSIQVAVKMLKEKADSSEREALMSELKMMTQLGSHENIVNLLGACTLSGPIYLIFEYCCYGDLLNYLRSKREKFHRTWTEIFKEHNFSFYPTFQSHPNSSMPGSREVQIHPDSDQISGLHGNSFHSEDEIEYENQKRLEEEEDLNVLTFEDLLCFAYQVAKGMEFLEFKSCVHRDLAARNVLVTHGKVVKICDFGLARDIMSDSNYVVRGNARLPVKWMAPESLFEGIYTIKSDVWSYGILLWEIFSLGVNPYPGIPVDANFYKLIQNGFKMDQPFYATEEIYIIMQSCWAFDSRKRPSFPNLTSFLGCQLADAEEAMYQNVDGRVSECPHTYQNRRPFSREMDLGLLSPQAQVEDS

[2] = tested on: MOLM-13; assay: Antiproliferative activity against human MOLM-13 cells harboring FLT3-ITD mutant assessed as cell growth inhibition measured after 72 hrs by CCK8 assay; conditions: MOLM-13, 72 h
[3] = tested on: MV4-11; assay: Induction of apoptosis in human MV4-11 cells assessed as necrotic cells at 0.1 uM measured after 48 hrs by Annexin V-FITC/PI double staining based flow cytometric analysis (reference value: 5.67 %); assay type: functional
[4] = tested on: MV4-11; assay: Induction of cell cycle arrest in human MV4-11 cells assessed as accumulation at G0/G1 phase at 0.1 uM measured after 24 hrs by flow cytometry (reference value: 64.29 %); assay type: functional
[5] = tested on: MV4-11; assay: Inhibition of ERK phosphorylation in human MV4-11 cells incubated for 12 hrs by Western blot analysis; assay type: cell-based; conditions: dose 0.1-2.5 µM, DDE = dose-dependent effect
[6] = tested on: MV4-11; assay: Induction of cell cycle arrest in human MV4-11 cells assessed as accumulation at G0/G1 phase at 0.5 uM measured after 24 hrs by flow cytometry (reference value: 64.29 %); assay type: functional
[7] = Cytotoxicity against human K562 cells assessed as cell growth inhibition measured after 72 hrs by CCK8 assay; assay type: toxicity, cell-based
[8] = tested on: HepG2; assay: Antiproliferative activity human HepG2 cells assessed as cell growth inhibition measured after 72 hrs by CCK8 assay; conditions: HepG2, 72 h
[9] = tested on: MV4-11; assay: Induction of apoptosis in human MV4-11 cells assessed as early apoptotic cells at 2.5 uM measured after 48 hrs by Annexin V-FITC/PI double staining based flow cytometric analysis (reference value: 2.04 %); assay type: functional
[10] = tested on: MV4-11; assay: Induction of apoptosis in human MV4-11 cells assessed as viable cells at 0.5 uM measured after 48 hrs by Annexin V-FITC/PI double staining based flow cytometric analysis (reference value: 80.26 %); assay type: functional; conditions: read-out: Activity
[11] = biological target: Serine/threonine-protein kinase AKT (Homo sapiens) (UniProt P31751+Q9Y243+P31749); assay: Inhibition of AKT phosphorylation in human MV4-11 cells incubated for 12 hrs by Western blot analysis; assay type: cell-based; conditions: dose 0.1-2.5 µM, DDE = dose-dependent effect
[12] = Cytotoxicity against HUVEC cells assessed as cell growth inhibition measured after 72 hrs by CCK8 assay; assay type: toxicity, cell-based; conditions: human
[13] = tested on: MV4-11; assay: Induction of apoptosis in human MV4-11 cells assessed as early apoptotic cells at 0.5 uM measured after 48 hrs by Annexin V-FITC/PI double staining based flow cytometric analysis (reference value: 2.04 %); assay type: functional
[14] = tested on: MV4-11; assay: Induction of apoptosis in human MV4-11 cells assessed as viable cells at 2.5 uM measured after 48 hrs by Annexin V-FITC/PI double staining based flow cytometric analysis (reference value: 80.26 %); assay type: functional; conditions: read-out: Activity
[15] = tested on: MV4-11; assay: Induction of apoptosis in human MV4-11 cells assessed as late apoptotic cells at 0.5 uM measured after 48 hrs by Annexin V-FITC/PI double staining based flow cytometric analysis (reference value: 12.03 %); assay type: functional
[16] = biological target: Receptor-type tyrosine-protein kinase FLT3 (Homo sapiens) (UniProt P36888); assay: Inhibition of FLT3 phosphorylation in human MV4-11 cells incubated for 12 hrs by Western blot analysis; assay type: cell-based; conditions: dose 0.1-2.5 µM, DDE = dose-dependent effect
[17] = tested on: MV4-11; assay: Antiproliferative activity against human MV4-11 cells harboring FLT3-ITD mutant assessed as cell growth inhibition measured after 72 hrs by CCK8 assay; conditions: MV4-11, 72 h
[18] = tested on: MV4-11; assay: Induction of apoptosis in human MV4-11 cells assessed as viable cells at 0.1 uM measured after 48 hrs by Annexin V-FITC/PI double staining based flow cytometric analysis (reference value: 80.26 %); assay type: functional; conditions: read-out: Activity
[19] = tested on: MV4-11; assay: Induction of apoptosis in human MV4-11 cells assessed as late apoptotic cells at 2.5 uM measured after 48 hrs by Annexin V-FITC/PI double staining based flow cytometric analysis (reference value: 12.03 %); assay type: functional

Chain of Serine/threonine-protein kinase AKT (Homo sapiens) (P31749 whole entry, looked up): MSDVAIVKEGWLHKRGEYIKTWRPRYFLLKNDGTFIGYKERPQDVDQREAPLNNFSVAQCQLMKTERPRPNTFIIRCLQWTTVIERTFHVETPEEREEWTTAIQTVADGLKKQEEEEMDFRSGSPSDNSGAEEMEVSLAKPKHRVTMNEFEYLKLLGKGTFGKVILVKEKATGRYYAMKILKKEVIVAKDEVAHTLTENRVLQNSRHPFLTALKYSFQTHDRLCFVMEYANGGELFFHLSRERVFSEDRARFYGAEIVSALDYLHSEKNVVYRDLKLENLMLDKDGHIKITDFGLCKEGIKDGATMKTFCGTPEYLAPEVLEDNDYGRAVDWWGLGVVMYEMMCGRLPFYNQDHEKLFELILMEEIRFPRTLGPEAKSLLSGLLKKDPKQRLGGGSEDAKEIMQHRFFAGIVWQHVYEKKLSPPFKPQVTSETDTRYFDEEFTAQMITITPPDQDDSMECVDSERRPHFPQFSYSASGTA
Chain of Serine/threonine-protein kinase AKT (Homo sapiens) (P31751 whole entry, looked up): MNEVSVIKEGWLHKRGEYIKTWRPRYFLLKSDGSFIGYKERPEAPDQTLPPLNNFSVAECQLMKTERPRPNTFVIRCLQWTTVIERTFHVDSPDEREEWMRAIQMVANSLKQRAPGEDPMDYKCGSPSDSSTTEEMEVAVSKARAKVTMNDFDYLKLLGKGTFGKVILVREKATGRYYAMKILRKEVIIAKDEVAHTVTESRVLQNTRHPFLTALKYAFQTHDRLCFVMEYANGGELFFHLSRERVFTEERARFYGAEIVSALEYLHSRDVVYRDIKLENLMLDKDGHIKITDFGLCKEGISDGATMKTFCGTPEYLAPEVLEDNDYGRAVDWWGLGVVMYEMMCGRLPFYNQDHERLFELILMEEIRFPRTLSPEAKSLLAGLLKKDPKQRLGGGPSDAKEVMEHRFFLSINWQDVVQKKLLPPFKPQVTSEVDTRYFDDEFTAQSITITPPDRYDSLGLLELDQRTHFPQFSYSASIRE
Chain of Serine/threonine-protein kinase AKT (Homo sapiens) (Q9Y243 whole entry, looked up): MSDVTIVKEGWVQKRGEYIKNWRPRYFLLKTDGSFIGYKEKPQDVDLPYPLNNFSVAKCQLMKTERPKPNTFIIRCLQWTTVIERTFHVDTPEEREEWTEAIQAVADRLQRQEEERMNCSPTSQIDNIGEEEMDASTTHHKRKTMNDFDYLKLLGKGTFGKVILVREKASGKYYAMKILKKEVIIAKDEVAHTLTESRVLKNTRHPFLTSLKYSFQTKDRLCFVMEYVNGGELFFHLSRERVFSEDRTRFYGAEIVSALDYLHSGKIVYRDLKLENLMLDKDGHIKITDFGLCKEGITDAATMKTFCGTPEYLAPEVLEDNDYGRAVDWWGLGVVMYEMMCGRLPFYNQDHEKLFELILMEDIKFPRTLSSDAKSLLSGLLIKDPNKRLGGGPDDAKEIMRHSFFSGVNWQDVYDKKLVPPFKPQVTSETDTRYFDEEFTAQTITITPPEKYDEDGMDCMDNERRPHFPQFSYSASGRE

IC50 [1]: 256 nM
IC50 [2]: 507 nM
IC50 [8]: > 10000 nM
inhibition [11]: Dde
inhibition [16]: Dde
IC50 [17]: 325 nM
SMILES: C=CC(=O)Nc1ccc(NC(=O)Nc2ccc(-c3cc(C)nc4noc(N)c34)cc2)cc1
Activity [3]: 4.51%
Activity [4]: 67.6%
inhibition [5]: Dde
Activity [6]: 71.37%
IC50 at 72 h [7]: > 10000 nM
Activity [9]: 1.5%
viability at 0.5 µM [10]: 77.5%
IC50 at 72 h [12]: > 10000 nM
Activity [13]: 2.43%
viability at 2.5 µM [14]: 53.9%
Activity [15]: 14.58%
viability at 0.1 µM [18]: 81.8%
Activity [19]: 35.01%
